# Key:
# succinate dehydrogenase = target: T1, succinate dehydrogenase (Sus scrofa, UniProt A5GZW8+D0VWV4+Q007T0); assay: Enzyme activity assay, succinate dehydrogenase (DCIP reduction); assay type: biochemical, porcine; details: read-out: Inhibitors (10 μM, SQR)
# T1 construct: isolated from porcine hearts; from tissue; host or cells: porcine heart
# How it was run: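 Porcine heart succinate dehydrogenase (2 nM) in 100 mM sodium phosphate pH 7.4, 0.3 mM EDTA, 20 mM sodium succinate and 53 μM DCIP at 23° C with stirring. DCIP reduction followed at 600 nm (ε 21 mM^−1 cm^−1); linear slope minus baseline gives initial rate.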
# Sphaerotheca fuliginea = Sphaerotheca fuliginea potting method; assay type: in vivo; details: Podosphaera fuliginea; 100 mg/L; read-out: Sphaerotheca fuliginea control rating
# Protocol: The fungicidal activity of the control agents and target compounds are determined. The test and investigation method refers to SOP-SC-1101 sphaerotheca fuliginea potting method in disinfectant rolls written by KANGZHUO and GUBAOGEN in “Standard operation specification for testing biological activity of pesticides”.
# Erysiphe graminis = Erysiphe graminis potting method; assay type: in vivo; details: Blumeria graminis, read-out: Erysiphe graminis control rating; for pest or weed control at 100 µg/mL: 100 mg/L
# Protocol: The fungicidal activity of the control agents and target compounds are determined. The test and investigation method refers to SOP-SC-1116 Erysiphe graminis potting method in disinfectant rolls written by KANGZHUO and GUBAOGEN in “Standard operation specification for testing biological activity of pesticides”.
# T1 sequence (Q0QF01 43-664 partner): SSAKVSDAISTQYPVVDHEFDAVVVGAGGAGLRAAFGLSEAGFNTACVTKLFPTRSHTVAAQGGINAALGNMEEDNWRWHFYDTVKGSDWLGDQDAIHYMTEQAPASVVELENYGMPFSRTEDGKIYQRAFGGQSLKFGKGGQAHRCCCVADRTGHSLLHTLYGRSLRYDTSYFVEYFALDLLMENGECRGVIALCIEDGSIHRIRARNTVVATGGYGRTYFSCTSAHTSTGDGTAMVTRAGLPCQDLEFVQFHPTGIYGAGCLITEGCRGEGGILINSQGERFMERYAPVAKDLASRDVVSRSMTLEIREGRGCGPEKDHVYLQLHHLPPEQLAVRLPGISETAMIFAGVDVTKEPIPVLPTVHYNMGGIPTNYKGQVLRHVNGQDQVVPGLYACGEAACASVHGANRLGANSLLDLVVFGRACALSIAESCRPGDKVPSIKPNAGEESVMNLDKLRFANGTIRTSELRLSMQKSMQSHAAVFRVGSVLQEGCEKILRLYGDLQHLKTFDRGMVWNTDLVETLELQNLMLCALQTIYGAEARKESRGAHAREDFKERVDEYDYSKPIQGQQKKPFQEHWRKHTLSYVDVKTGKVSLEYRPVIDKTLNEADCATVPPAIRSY
# T1 sequence (Q007T0 29-280): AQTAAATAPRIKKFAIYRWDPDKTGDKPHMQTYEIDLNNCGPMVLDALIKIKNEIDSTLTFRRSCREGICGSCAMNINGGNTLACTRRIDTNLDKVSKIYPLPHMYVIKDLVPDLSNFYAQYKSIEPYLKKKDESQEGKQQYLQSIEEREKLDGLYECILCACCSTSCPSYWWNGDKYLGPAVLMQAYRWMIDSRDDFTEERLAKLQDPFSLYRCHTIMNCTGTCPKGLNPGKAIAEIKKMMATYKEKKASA
# T1 sequence (D0VWV4 30-169): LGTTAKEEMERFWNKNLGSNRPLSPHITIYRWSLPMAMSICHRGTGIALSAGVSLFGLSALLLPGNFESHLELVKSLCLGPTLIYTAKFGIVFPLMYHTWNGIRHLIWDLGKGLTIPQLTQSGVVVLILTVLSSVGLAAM
# T1 sequence (A5GZW8 57-159 limits assumed): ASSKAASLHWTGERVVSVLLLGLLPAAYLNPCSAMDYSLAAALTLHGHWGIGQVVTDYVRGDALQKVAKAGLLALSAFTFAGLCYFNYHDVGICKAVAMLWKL
inhibition at 10 µM (succinate dehydrogenase),Structure (SMILES),pest or weed control at 100 µg/mL (Sphaerotheca fuliginea),pest or weed control at 100 µg/mL (Erysiphe graminis),pest or weed control at 6.25 µg/mL (Erysiphe graminis; 6.25 mg/L),pest or weed control at 25 µg/mL (Erysiphe graminis; 25 mg/L)
> 90%,C=C(CN(C(=O)c1c(C(F)F)nn(C)c1F)C1CC1)c1ccc(Cl)cc1 [Compound 17],80 to 100%,80 to 100%,–,–
> 90%,CC(C(=C(Cl)Cl)c1c(Br)cc(Br)cc1Br)N(C(=O)c1c(C(F)F)nn(C)c1F)C1CC1 (centres unmarked) [Compound 190],80 to 100%,80 to 100%,–,–
> 90%,C=C(c1c(Br)cc(Br)cc1Br)C(C)N(C(=O)c1c(C(F)F)nn(C)c1F)C1CC1 (centres unmarked) [Compound 85],80 to 100%,80 to 100%,–,–
> 90%,CC(C(=C(Cl)Cl)c1ccccc1Br)N(C(=O)c1c(C(F)F)nn(C)c1F)C1CC1 (centres unmarked) [Compound 185],80 to 100%,80 to 100%,–,–
> 90%,Cn1nc(C(F)F)c(C(=O)N(CC(=C(Cl)Cl)c2ccc(F)cc2F)C2CC2)c1F [Compound 126],80 to 100%,80 to 100%,–,–
> 90%,C=C(CN(C(=O)c1c(C(F)F)nn(C)c1F)C1CC1)c1cccc(C)c1 [Compound 32],70 to 80%,80 to 100%,–,–
> 90%,CC(C(=C(Cl)Cl)c1ccc(F)cc1F)N(C(=O)c1c(C(F)F)nn(C)c1F)C1CC1 (centres unmarked) [Compound 179],80 to 100%,80 to 100%,–,–
> 90%,Cn1nc(C(F)F)c(C(=O)N(CC(=C(Cl)Cl)c2cccc(F)c2)C2CC2)c1F [Compound 124],80 to 100%,80 to 100%,–,–
> 90%,Cn1nc(C(F)F)c(C(=O)N(CC(=C(Cl)Cl)c2c(F)cc(F)cc2F)C2CC2)c1F [Compound 129],80 to 100%,80 to 100%,–,–
> 90%,CC(C(=C(Cl)Cl)c1cc(Br)ccc1Br)N(C(=O)c1c(C(F)F)nn(C)c1F)C1CC1 (centres unmarked) [Compound 188],80 to 100%,80 to 100%,–,–
> 90%,C=C(CN(C(=O)c1c(C(F)F)nn(C)c1F)C1CC1)c1ccccc1Br [Compound 3],80 to 100%,80 to 100%,–,–
> 90%,CC(C(=C(Cl)Cl)c1ccc(C(F)(F)F)cc1Cl)N(C(=O)c1c(C(F)F)nn(C)c1F)C1CC1 (centres unmarked) [Compound 211],80 to 100%,80 to 100%,–,–
> 90%,CCS(=O)(=O)c1ccc(C(=C(Cl)Cl)C(C)N(C(=O)c2c(C(F)F)nn(C)c2F)C2CC2)cc1 (centres unmarked) [Compound 216],80 to 100%,80 to 100%,–,–
> 90%,C=C(CN(C(=O)c1c(C(F)F)nn(C)c1F)C1CC1)c1ccc(S(C)(=O)=O)cc1Cl [Compound 48],80 to 100%,80 to 100%,–,–
> 90%,C=C(c1cccc(S(=O)(=O)CC)c1)C(C)N(C(=O)c1c(C(F)F)nn(C)c1F)C1CC1 (centres unmarked) [Compound 108],80 to 100%,80 to 100%,–,–
> 90%,C=C(CN(C(=O)c1c(C(F)F)nn(C)c1F)C1CC1)c1c(Br)cccc1Br [Compound 30],80 to 100%,80 to 100%,–,–
> 90%,C=C(c1ccccc1S(C)(=O)=O)C(C)N(C(=O)c1c(C(F)F)nn(C)c1F)C1CC1 (centres unmarked) [Compound 105],80 to 100%,80 to 100%,–,–
> 90%,C=C(c1c(C)cccc1C)C(C)N(C(=O)c1c(C(F)F)nn(C)c1F)C1CC1 (centres unmarked) [Compound 90],80 to 100%,80 to 100%,–,–
> 90%,Cc1ccc(C)c(C(=C(Cl)Cl)C(C)N(C(=O)c2c(C(F)F)nn(C)c2F)C2CC2)c1 (centres unmarked) [Compound 194],80 to 100%,80 to 100%,–,–
> 90%,Cc1ccccc1C(CN(C(=O)c1c(C(F)F)nn(C)c1F)C1CC1)=C(Cl)Cl [Compound 149],80 to 100%,80 to 100%,–,–
> 90%,C=C(CN(C(=O)c1c(C(F)F)nn(C)c1F)C1CC1)c1cccc(Cl)c1Cl [Compound 8],80 to 100%,80 to 100%,–,–
> 90%,C=C(c1ccc(C)cc1C)C(C)N(C(=O)c1c(C(F)F)nn(C)c1F)C1CC1 (centres unmarked) [Compound 88],80 to 100%,80 to 100%,–,–

inhibition at 10 µM (succinate dehydrogenase),Structure (SMILES),pest or weed control at 100 µg/mL (Sphaerotheca fuliginea),pest or weed control at 100 µg/mL (Erysiphe graminis),pest or weed control at 6.25 µg/mL (Erysiphe graminis; 6.25 mg/L),pest or weed control at 25 µg/mL (Erysiphe graminis; 25 mg/L)
> 90%,CC(C(=C(Cl)Cl)c1c(F)cccc1F)N(C(=O)c1c(C(F)F)nn(C)c1F)C1CC1 (centres unmarked) [Compound 181],80 to 100%,80 to 100%,–,–
> 90%,C=C(CN(C(=O)c1c(C(F)F)nn(C)c1F)C1CC1)c1ccc(Cl)cc1F [Compound 42],80 to 100%,80 to 100%,–,–
> 90%,Cn1nc(C(F)F)c(C(=O)N(CC(=C(Cl)Cl)c2c(Cl)cccc2Cl)C2CC2)c1F [Compound 120],80 to 100%,80 to 100%,–,–
> 90%,C=C(CN(C(=O)c1c(C(F)F)nn(C)c1F)C1CC1)c1ccc(F)cc1 [Compound 22],80 to 100%,80 to 100%,–,–
> 90%,C=C(CN(C(=O)c1c(C(F)F)nn(C)c1F)C1CC1)c1cccc(F)c1 [Compound 21],70 to 80%,80 to 100%,–,–
> 90%,Cn1nc(C(F)F)c(C(=O)N(CC(=C(Cl)Cl)c2ccccc2F)C2CC2)c1F [Compound 115],80 to 100%,80 to 100%,–,–
> 90%,C=C(CN(C(=O)c1c(C(F)F)nn(C)c1F)C1CC1)c1ccc(S(C)(=O)=O)cc1 [Compound 15],70 to 80%,80 to 100%,–,–
> 90%,C=C(c1ccc(OC)cc1)C(C)N(C(=O)c1c(C(F)F)nn(C)c1F)C1CC1 (centres unmarked) [Compound 61],80 to 100%,80 to 100%,–,–
> 90%,CC(C(=C(Cl)Cl)c1cc(C(F)(F)F)ccc1Cl)N(C(=O)c1c(C(F)F)nn(C)c1F)C1CC1 (centres unmarked) [Compound 209],80 to 100%,80 to 100%,–,–
> 90%,Cn1nc(C(F)F)c(C(=O)N(CC(=C(Cl)Cl)c2ccc(Cl)c(Cl)c2)C2CC2)c1F [Compound 121],80 to 100%,80 to 100%,–,–
> 90%,C=C(CN(C(=O)c1c(C(F)F)nn(C)c1F)C1CC1)c1cc(Cl)cc(Cl)c1 [Compound 2],80 to 100%,80 to 100%,–,–
> 90%,C=C(CN(C(=O)c1c(C(F)F)nn(C)c1F)C1CC1)c1cc(C(C)(C)C)ccc1C [Compound 40],70 to 80%,80 to 100%,–,–
> 90%,C=C(c1c(Cl)cc(Cl)cc1Cl)C(C)N(C(=O)c1c(C(F)F)nn(C)c1F)C1CC1 (centres unmarked) [Compound 74],80 to 100%,80 to 100%,–,–
> 90%,Cn1nc(C(F)F)c(C(=O)N(CC(=C(Cl)Cl)c2ccc(Br)c(Br)c2)C2CC2)c1F [Compound 138],80 to 100%,80 to 100%,–,–
> 90%,C=C(c1cc(C)ccc1C)C(C)N(C(=O)c1c(C(F)F)nn(C)c1F)C1CC1 (centres unmarked) [Compound 89],80 to 100%,80 to 100%,–,–
> 90%,C=C(CN(C(=O)c1c(C(F)F)nn(C)c1F)C1CC1)c1cc(F)ccc1F [Compound 24],80 to 100%,80 to 100%,–,–
> 90%,CC(C(=C(Cl)Cl)c1ccc(F)cc1)N(C(=O)c1c(C(F)F)nn(C)c1F)C1CC1 (centres unmarked) [Compound 178],80 to 100%,80 to 100%,–,–
> 90%,C=C(c1cc(C)ccc1C(C)(C)C)C(C)N(C(=O)c1c(C(F)F)nn(C)c1F)C1CC1 (centres unmarked) [Compound 94],80 to 100%,80 to 100%,–,–
> 90%,Cc1ccccc1C(=C(Cl)Cl)C(C)N(C(=O)c1c(C(F)F)nn(C)c1F)C1CC1 (centres unmarked) [Compound 202],80 to 100%,80 to 100%,–,–
> 90%,C=C(c1cc(F)ccc1F)C(C)N(C(=O)c1c(C(F)F)nn(C)c1F)C1CC1 (centres unmarked) [Compound 77],80 to 100%,80 to 100%,–,–
> 90%,C=C(CN(C(=O)c1c(C(F)F)nn(C)c1F)C1CC1)c1cc(C(C)C)ccc1C [Compound 37],70 to 80%,80 to 100%,70 to 80%,80 to 100%
> 90%,CC(C(=C(Cl)Cl)c1cc(Cl)ccc1Cl)N(C(=O)c1c(C(F)F)nn(C)c1F)C1CC1 (centres unmarked) [Compound 171],80 to 100%,80 to 100%,–,–

# From patent publication US12540118B2, “Dendrene amide compound, bactericide and use thereof” (Jiangsu Flag Chemical Industry Co., Ltd., priority 2020, dated 2026)
